Results reported in patent publication US20240207249A1, “COMPOSITIONS AND METHODS FOR TREATING, PREVENTING OR REVERSING AGE-ASSOCIATED INFLAMMATION AND DISORDER” (Brown University, priority 2019, published 2024).
“Also recorded” adds a separate entry of the source. Like-named read-outs stand apart in the source and are kept apart here.

Legend:
[1] = biological target: human L1 EN domain (1-239) (Homo sapiens (Human), UniProt O00370); assay: plasmid nicking L1 EN activity biochemical assay
APE-1 = APE-1 (Homo sapiens (Human), UniProt P27695); settings: cited from earlier work
Sequence of APE-1 (P27695 whole entry): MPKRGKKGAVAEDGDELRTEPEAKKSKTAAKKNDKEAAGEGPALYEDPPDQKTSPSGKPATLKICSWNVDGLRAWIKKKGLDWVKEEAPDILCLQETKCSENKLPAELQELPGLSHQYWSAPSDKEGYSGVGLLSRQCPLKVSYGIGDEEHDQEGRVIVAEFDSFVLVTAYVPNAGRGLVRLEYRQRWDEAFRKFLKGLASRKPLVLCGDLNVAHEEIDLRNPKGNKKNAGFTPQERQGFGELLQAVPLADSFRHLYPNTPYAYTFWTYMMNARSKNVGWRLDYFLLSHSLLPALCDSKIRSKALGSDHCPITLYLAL

L1 retrotransposition = L1 retrotransposition dual-luciferase reporter cellular assay in HeLa-M2 cells; format: cell-based, human; settings: for Cellular assay: retrotransposition efficiency (mean ± SD): Table 2
L1 EN = L1 EN (Homo sapiens (Human), UniProt O00370); assay: fluorescent oligonucleotide nicking assay; format: biochemical
Sequence of L1 EN (O00370 1-239): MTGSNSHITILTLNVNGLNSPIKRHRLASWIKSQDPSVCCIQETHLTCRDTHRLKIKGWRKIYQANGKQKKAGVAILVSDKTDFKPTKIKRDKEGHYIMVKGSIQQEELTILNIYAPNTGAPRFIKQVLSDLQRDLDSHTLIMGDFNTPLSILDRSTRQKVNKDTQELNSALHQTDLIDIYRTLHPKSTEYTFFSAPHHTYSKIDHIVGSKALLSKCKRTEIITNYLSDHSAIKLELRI

[2] = system: full-length L1 (ORF1 and ORF2) in HeLa Tet-On cells; assay: L1-induced DNA damage, γ-H2AX immunofluorescence, full-length L1 expression; format: cell-based, human
[3] = system: senescent human diploid fibroblasts (LF1); assay: RT-qPCR of inflammatory markers in replicative senescent cells; format: cell-based
[4] = solubility remark in cellular assay column; settings: reason for no cellular data
[5] = system: L1 EN domain in HeLa Tet-On cells; assay: L1-induced DNA damage, γ-H2AX immunofluorescence and neutral comet assay, EN domain-only expression; format: cell-based, human
[6] = system: senescent human diploid fibroblasts (LF1); assay: RNA-seq transcriptomic analysis of senescent cells; format: cell-based; settings: IFN gene set and aging gene set
HeLa cells = settings: human
[7] = in vitro assays with purified EN

Sequence of human L1 EN domain (1-239) (O00370 1-239): as above

Compound	L1 EN inhibition in the biochemical assay (in words) [1]	Biochemical assay: maximum inhibition ([1]; plasmid nicking assay)	Biochemical assay: concentration at maximum inhibition [1]	Biochemical assay: maximum inhibition [1]	effect on retrotransposition in the cellular reporter assay (in words) (L1 retrotransposition)	Biochemical assay: concentration at maximum inhibition ([1]; plasmid nicking assay)	further results
CCn1c2ccccc2c2cc(/C=N\Nc3cc(C)nc4cc5c(cc34)OCO5)ccc21 [AD1, reference compound]	did not inhibit the L1 EN	No inhibition					Ki (APE-1): 0.12 µM
O=C(O)[C@H](CCCCNc1ccc([N+](=O)[O-])cc1[N+](=O)[O-])Nc1ccc([N+](=O)[O-])cc1[N+](=O)[O-] [AD2]	effective against the L1 EN		1 mM FIG. 2B	100% inhibition at	did not significantly impact retrotransposition in cells		in vitro activity against EN (in words) (L1 EN): clear activity in vitro; Ki (APE-1): 13 µM
C/C(C[C@H](c1ccccc1)c1c(O)c2ccccc2oc1=O)=N\Nc1ccc([N+](=O)[O-])cc1[N+](=O)[O-] [AD3]			250 μM FIG. 2C	100% inhibition at	best inhibition in the retrotransposition assay		inhibition of L1-induced DNA damage (in words) [2]: best inhibition; effect on inflammatory markers in senescent cells (in words) [3]: show efficacy
O=[N+]([O-])c1ccc(Nc2ccc(Nc3ccccc3)c(S(=O)(=O)O)c2)c([N+](=O)[O-])c1 [AD4]			1 mM FIG. 2D	100% inhibition at			
Cc1cc(=O)oc2c3c(ccc12)O/C(=N/Nc1ccc([N+](=O)[O-])cc1[N+](=O)[O-])C3=O [AD5]			50 μM FIG. 2E	100% inhibition	did not significantly impact retrotransposition in cells		in vitro activity against EN (in words) (L1 EN): clear activity in vitro; solubility (in words) [4]: (poor solubility)
Cc1cc([N+](=O)[O-])ccc1NC(=S)NC(=O)C(c1ccccc1)c1ccccc1 [AD6]		90% inhibition at				750 μM FIG. 2F	Cellular assay: retrotransposition efficiency (mean ± SD) (L1 retrotransposition; 10 μM): 10 μM: 79.1
C/C(=N/Nc1ccc([N+](=O)[O-])cc1[N+](=O)[O-])c1ccc(-n2nncc2C(C)(C)C)cc1 [AD7]			500 μM FIG. 2F	80% inhibition at	high activity in the retrotransposition assay		in vitro activity against EN (in words) (L1 EN): relatively low efficacy in vitro
C[C@@H](Nc1ccc([N+](=O)[O-])cc1[N+](=O)[O-])C(=O)O [AD8]			15 mM FIG. 2G	100% inhibition at			
C[C@H]1C[C@H](C)CN(CCCNc2ccc(C(=O)Nc3ccc(C(F)(F)F)cc3)cc2[N+](=O)[O-])C1 [AD9]		80% inhibition at			high activity in the retrotransposition assay	750 μM FIG. 2H	in vitro activity against EN (in words) (L1 EN; [7]): relatively low efficacy in vitro
O=C(NC(NC(=O)c1ccccc1)c1cccc([N+](=O)[O-])c1)c1ccccc1 [AD10]		100% inhibition at				100 μM FIG. 21	Cellular assay: retrotransposition efficiency (mean ± SD) (L1 retrotransposition; 50 μM): 50 μM: 68.9
O=C(CCCCCCCCCCC(=O)Nc1cccc([N+](=O)[O-])c1)Nc1cccc([N+](=O)[O-])c1 [AD11]			10.0 μM FIG. 2J	100% inhibition at			inhibition of L1-induced DNA damage (in words) [5]: better efficacy
COc1ccc2c(c1)C(=O)N(CCc1ccc(S(=O)(=O)NC(=O)NC3CCCCC3)cc1)C(=O)C2(C)C [AD12, Gliquidone, reference compound]					reduced retrotransposition in the cellular reporter assay; also recorded: high activity in the retrotransposition assay; also recorded: best inhibition in the retrotransposition assay		inhibition of L1-induced DNA damage (in words) [2]: best inhibition; effect on inflammatory markers in senescent cells (in words) ([3]; 1 month treatment): show efficacy; gene set expression by RNA-seq (in words) [6]: decreased expression
O=C1c2ccc(Oc3ccc4c(c3)C(=O)N(Nc3ccc([N+](=O)[O-])cc3[N+](=O)[O-])C4=O)cc2C(=O)N1Nc1ccc([N+](=O)[O-])cc1[N+](=O)[O-] [AD13]	effective in the biochemical assay		500 μM FIG. 2L	100% inhibition at			
CCC1=C(C)CN(C(=O)NCCc2ccc(S(=O)(=O)NC(=O)N[C@H]3CC[C@H](C)CC3)cc2)C1=O [AD15, Glimepiride, reference compound]	inhibited L1 EN activity in the biochemical assay	100% inhibition at			reduced retrotransposition in the cellular reporter assay	2.5 mM FIG. 2N	Cellular assay: retrotransposition efficiency (mean ± SD) (L1 retrotransposition; 50 μM): 50 μM: 17.1
Nn1cnn2c(SCC(=O)Cc3ccc(-c4nc5cc(NC(=O)CSc6nnc7n(N)cnn67)ccc5o4)cc3)nnc12 [AD16]	effective in the biochemical assay	50% inhibition at				500 μM FIG. 20	inhibition of L1-induced DNA damage (in words) ([5]; EN domain-only): better efficacy
O=C(Nc1ccc(S(=O)(=O)NCc2ccco2)cc1)c1cc(NS(=O)(=O)c2cccs2)cc(NS(=O)(=O)c2cccs2)c1 [AD18]	effective in the biochemical assay	50% inhibition at			did not significantly impact retrotransposition in cells	750 μM FIG. 2Q	in vitro activity against EN (in words) (L1 EN; [7]): clear activity in vitro
COc1ccccc1NC(=O)Nc1nc(Nc2ccc(S(=O)(=O)Nc3nc(C)cc(C)n3)cc2)nc(Oc2cccc(O)c2)n1 [AD19]	effective in the biochemical assay	75% inhibition at				250 μM FIG. 2R	
Cc1ccc(NC(=O)CSc2nc(-c3ccccc3F)nc3c2Cc2c(CO)cnc(C)c2O3)cc1 [AD28]							Toxicity at concentration (HeLa cells): Toxicity at 2.5 μM
O=C(NCCCCCCNC(=O)Nc1cccc([N+](=O)[O-])c1)Nc1cccc([N+](=O)[O-])c1 [AD32]					high activity in the retrotransposition assay		in vitro activity against EN (in words) (L1 EN): relatively low efficacy in vitro
COc1ccc([N+](=O)[O-])cc1NC(=O)c1ccc2c(c1)N(Cc1cc(C)ccc1C)C(=O)c1ccccc1S2(=O)=O [AD34]					did not significantly impact retrotransposition in cells		in vitro activity against EN (in words) (L1 EN; [7]): clear activity in vitro
COc1ccc(OC)c(NS(=O)(=O)c2ccc(NS(=O)(=O)c3cccc([N+](=O)[O-])c3)cc2)c1 [AD36]					high activity in the retrotransposition assay		in vitro activity against EN (in words) (L1 EN; [7]): relatively low efficacy in vitro
O=C(Cn1nc(-c2ccc(Br)cc2)ccc1=O)NC[C@H]1CC[C@H](C(=O)O)CC1 [AD43]					high activity in the retrotransposition assay		in vitro activity against EN (in words) (L1 EN; [7]): relatively low efficacy in vitro
